Columns and labels:
Italian ryegrass [1] = assay: Test Example 5: herbicidal effect by foliage application, plastic box (Table 20, symbol K); type: in vivo, Italian ryegrass (Lolium multiflorum); conditions: foliage application; for K: Italian ryegrass, herbicidal effect (criteria 0-5): AAH 320 g/ha, evaluated three weeks after application
Procedure, shortened: (§1)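 Sow seeds spot-wise in sterilized diluvial soil; cover with ~1.5 cm soil. Grow 14 days in greenhouse, 25° C. to 30° C. Spray foliage with emulsion diluted to predetermined amount. Rate effect after 3 weeks.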

oval-leafed pondweed = assay: Test Example 1: herbicidal activity, application before weed generation under submerged conditions (Table 16, symbol C); type: in vivo, oval-leafed pondweed (Monochoria vaginalis); conditions: amount of applied herbicide 320 g/ha
Procedure, shortened: (§2)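 Submerged Wagner pots (alluvial soil, 4 cm water) sown with weed seeds and planted with 2.5-leaf rice seedlings; emulsifiable concentrate diluted in water applied to water surface on sowing day. Held in greenhouse at 25-30 °C; injury scored 0-5 by herbicidal rate after three weeks.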

rice flat sedge = assay: Test Example 3: herbicidal effect by foliage application, Wagner pot (Table 18, symbol E); type: in vivo, rice flat sedge (Cyperus iria)
Procedure, shortened: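 Plants were sown in alluvial soil held under 0.1–0.5 cm standing water and grown 14 days in a greenhouse at 25–30 °C. An emulsifiable formulation, water-diluted to the set dose, was then sprayed onto the foliage, and effects were scored three weeks later using previously defined criteria.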

lambsquarters [2] = assay: Test Example 4: herbicidal effect by soil treatment (Table 19, symbol O); type: in vivo, lambsquarters (Chenopodium album); conditions: amount of applied herbicide 320 g/ha
Procedure, shortened: (§3)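 Soil-surface application: an emulsion agent diluted with water to the predetermined dose is sprayed uniformly over seeds lying under roughly 1.5 cm of sterilized diluvial soil. Boxes stay in a greenhouse at 25° C. to 30° C. Three weeks later, each species is graded on previously defined criteria.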

lambsquarters [3] = assay: Test Example 5: herbicidal effect by foliage application, plastic box (Table 20, symbol O); type: in vivo, lambsquarters (Chenopodium album); conditions: foliage application; for O: lambsquarters, herbicidal effect (criteria 0-5): AAH 320 g/ha, evaluated three weeks after application
Procedure, shortened: as §1

late watergrass = assay: Test Example 2: herbicidal activity, application during weed generation under submerged conditions (Table 17, symbol A); type: in vivo, late watergrass (Echinochloa oryzicola); conditions: AAH 320 g/ha; application during weed generation, submerged conditions
Procedure, shortened: (§4)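 3-wk visual-criteria score after one water-surface dose. Emulsion formulation, water-diluted to set rate; applied at 1–2 leaf stage; alluvial soil, 4 cm standing water; seeds co-sown; greenhouse 25–30° C.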

chickweed = assay: Test Example 5: herbicidal effect by foliage application, plastic box (Table 20, symbol P); type: in vivo, common chickweed (Stellaria media); conditions: foliage application; for P: chickweed, herbicidal effect (criteria 0-5): AAH 320 g/ha, evaluated three weeks after application
Procedure, shortened: as §1

velvetleaf [4] = assay: Test Example 5: herbicidal effect by foliage application, plastic box (Table 20, symbol M); type: in vivo, velvetleaf (Abutilon theophrasti); conditions: foliage application; for M: velvetleaf, herbicidal effect (criteria 0-5): AAH 320 g/ha, evaluated three weeks after application
Procedure, shortened: as §1

Japanese bulrush [5] = assay: Test Example 1: herbicidal activity, application before weed generation under submerged conditions (Table 16, symbol B); type: in vivo, Japanese bulrush (Schoenoplectus juncoides); conditions: amount of applied herbicide 320 g/ha
Procedure, shortened: as §2

Italian ryegrass [6] = assay: Test Example 4: herbicidal effect by soil treatment (Table 19, symbol K); type: in vivo, Italian ryegrass (Lolium multiflorum); conditions: amount of applied herbicide 320 g/ha
Procedure, shortened: as §3

velvetleaf [7] = assay: Test Example 4: herbicidal effect by soil treatment (Table 19, symbol M); type: in vivo, velvetleaf (Abutilon theophrasti); conditions: amount of applied herbicide 320 g/ha
Procedure, shortened: as §3

barnyard grass = assay: Test Example 5: herbicidal effect by foliage application, plastic box (Table 20, symbol H); type: in vivo, barnyard grass (Echinochloa crus-galli); conditions: foliage application; for H: barnyard grass, herbicidal effect (criteria 0-5): AAH 320 g/ha, evaluated three weeks after application
Procedure, shortened: as §1

Japanese bulrush [8] = assay: Test Example 2: herbicidal activity, application during weed generation under submerged conditions (Table 17, symbol B); type: in vivo, Japanese bulrush (Schoenoplectus juncoides); conditions: AAH 320 g/ha; application during weed generation, submerged conditions
Procedure, shortened: as §4

windgrass = assay: Test Example 5: herbicidal effect by foliage application, plastic box (Table 20, symbol L); type: in vivo, windgrass (Apera spica-venti); conditions: foliage application; for L: windgrass, herbicidal effect (criteria 0-5): AAH 320 g/ha, evaluated three weeks after application
Procedure, shortened: as §1

wild oat [9] = assay: Test Example 4: herbicidal effect by soil treatment (Table 19, symbol I); type: in vivo, wild oat (Avena fatua); conditions: amount of applied herbicide 320 g/ha
Procedure, shortened: as §3

persian speedwell = assay: Test Example 4: herbicidal effect by soil treatment (Table 19, symbol R); type: in vivo, Persian speedwell (Veronica persica); conditions: amount of applied herbicide 320 g/ha
Procedure, shortened: as §3

wild oat [10] = assay: Test Example 5: herbicidal effect by foliage application, plastic box (Table 20, symbol I); type: in vivo, wild oat (Avena fatua); conditions: foliage application; for I: wild oat, herbicidal effect (criteria 0-5): AAH 320 g/ha, evaluated three weeks after application
Procedure, shortened: as §1

[11] = amount of applied herbicide 320 g/ha
[12] = 320 g/ha, three weeks after application

Compound	K: Italian ryegrass, herbicidal effect (criteria 0-5) (Italian ryegrass [1])	Herbicidal effect, C: oval-leafed pondweed (oval-leafed pondweed)	herbicidal effect on E: rice flat sedge (rice flat sedge; [11])	herbicidal effect, O: lambsquarters (lambsquarters [2])	O: lambsquarters, herbicidal effect (criteria 0-5) (lambsquarters [3])	herbicidal effect rating, A: late watergrass (late watergrass)	P: chickweed, herbicidal effect (criteria 0-5) (chickweed)	M: velvetleaf, herbicidal effect (criteria 0-5) (velvetleaf [4])	Herbicidal effect, B: Japanese bulrush (Japanese bulrush [5])	herbicidal effect, K: Italian ryegrass (Italian ryegrass [6])	herbicidal effect, M: velvetleaf (velvetleaf [7])	H: barnyard grass, herbicidal effect (criteria 0-5) (barnyard grass)	herbicidal effect rating, B: Japanese bulrush (Japanese bulrush [8])	L: windgrass, herbicidal effect (criteria 0-5) (windgrass)	herbicidal effect, I: wild oat (wild oat [9])	herbicidal effect, R: persian speedwell (persian speedwell)	I: wild oat, herbicidal effect (criteria 0-5) (wild oat [10])	also measured
Cc1nn(C)c(=O)c(-c2c(-c3cnccc3C(F)(F)F)sc3ccc(F)cc23)c1O [2-387]	4 (Herbicidal rate of 70% or more and less than 90%)	0 (Herbicidal rate of 5% or less (almost no effect))	5 (Herbicidal rate of 90% or more (almost completely withered))	4 (Herbicidal rate of 70% or more and less than 90%)	5 (Herbicidal rate of 90% or more (almost completely withered))	4 (Herbicidal rate of 70% or more and less than 90%)	5 (Herbicidal rate of 90% or more (almost completely withered))	5 (Herbicidal rate of 90% or more (almost completely withered))	3 (Herbicidal rate of 40% or more and less than 70%)	4 (Herbicidal rate of 70% or more and less than 90%)	3 (Herbicidal rate of 40% or more and less than 70%)	5 (Herbicidal rate of 90% or more (almost completely withered))	4 (Herbicidal rate of 70% or more and less than 90%)	5 (Herbicidal rate of 90% or more (almost completely withered))	1 (Herbicidal rate of 5% or more and less than 20%)	5 (Herbicidal rate of 90% or more (almost completely withered))	4 (Herbicidal rate of 70% or more and less than 90%)	
CCCC(=O)Oc1c(C)nn(C)c(=O)c1-c1c(-c2ccc(Cl)s2)sc2ccc(F)cc12 [2-391]	5 (Herbicidal rate of 90% or more (almost completely withered))	5 (Herbicidal rate of 90% or more (almost completely withered))	5 (Herbicidal rate of 90% or more (almost completely withered))	4 (Herbicidal rate of 70% or more and less than 90%)	4 (Herbicidal rate of 70% or more and less than 90%)	3 (Herbicidal rate of 40% or more and less than 70%)	5 (Herbicidal rate of 90% or more (almost completely withered))	5 (Herbicidal rate of 90% or more (almost completely withered))	4 (Herbicidal rate of 70% or more and less than 90%)	5 (Herbicidal rate of 90% or more (almost completely withered))	3 (Herbicidal rate of 40% or more and less than 70%)	5 (Herbicidal rate of 90% or more (almost completely withered))	4 (Herbicidal rate of 70% or more and less than 90%)	4 (Herbicidal rate of 70% or more and less than 90%)	0 (Herbicidal rate of 5% or less (almost no effect))	3 (Herbicidal rate of 40% or more and less than 70%)	3 (Herbicidal rate of 40% or more and less than 70%)	
Cc1nn(C)c(=O)c(-c2c(-c3ccc4c(c3)OC(F)(F)O4)sc3ccc(F)cc23)c1O [2-392]	5 (Herbicidal rate of 90% or more (almost completely withered))	0 (Herbicidal rate of 5% or less (almost no effect))	5 (Herbicidal rate of 90% or more (almost completely withered))	3 (Herbicidal rate of 40% or more and less than 70%)	5 (Herbicidal rate of 90% or more (almost completely withered))	2 (Herbicidal rate of 20% or more and less than 40%)	5 (Herbicidal rate of 90% or more (almost completely withered))	5 (Herbicidal rate of 90% or more (almost completely withered))	0 (Herbicidal rate of 5% or less (almost no effect))	3 (Herbicidal rate of 40% or more and less than 70%)	1 (Herbicidal rate of 5% or more and less than 20%)	5 (Herbicidal rate of 90% or more (almost completely withered))	0 (Herbicidal rate of 5% or less (almost no effect))	0 (Herbicidal rate of 5% or less (almost no effect))	0 (Herbicidal rate of 5% or less (almost no effect))	5 (Herbicidal rate of 90% or more (almost completely withered))	4 (Herbicidal rate of 70% or more and less than 90%)	
CCCC(=O)Oc1c(C)nn(C)c(=O)c1-c1c(-c2ccc(C(F)(F)F)cc2)sc2cc(F)ccc12 [3-140]		3 (Herbicidal rate of 40% or more and less than 70%)				3 (Herbicidal rate of 40% or more and less than 70%)			3 (Herbicidal rate of 40% or more and less than 70%)				3 (Herbicidal rate of 40% or more and less than 70%)					K: Italian ryegrass, herbicidal effect grade (Italian ryegrass [1]; [12]): 0 (Herbicidal rate of 5% or less (almost no effect)); herbicidal effect on rice flat sedge (E) (rice flat sedge; 320 g/ha): 5 (Herbicidal rate of 90% or more (almost completely withered)); Herbicidal effect by soil treatment, O: lambsquarters (lambsquarters [2]): 3 (Herbicidal rate of 40% or more and less than 70%); O: lambsquarters, herbicidal effect grade (lambsquarters [3]; [12]): 4 (Herbicidal rate of 70% or more and less than 90%); P: chickweed, herbicidal effect grade (chickweed; [12]): 5 (Herbicidal rate of 90% or more (almost completely withered)); M: velvetleaf, herbicidal effect grade (velvetleaf [4]; [12]): 5 (Herbicidal rate of 90% or more (almost completely withered)); Herbicidal effect by soil treatment, K: Italian ryegrass (Italian ryegrass [6]): 0 (Herbicidal rate of 5% or less (almost no effect)); Herbicidal effect by soil treatment, M: velvetleaf (velvetleaf [7]): 0 (Herbicidal rate of 5% or less (almost no effect)); H: barnyard grass, herbicidal effect grade (barnyard grass; [12]): 3 (Herbicidal rate of 40% or more and less than 70%); Herbicidal effect by soil treatment, I: wild oat (wild oat [9]): 0 (Herbicidal rate of 5% or less (almost no effect)); Herbicidal effect by soil treatment, R: persian speedwell (persian speedwell): 0 (Herbicidal rate of 5% or less (almost no effect)); I: wild oat, herbicidal effect grade (wild oat [10]; [12]): 2 (Herbicidal rate of 20% or more and less than 40%)
COc1ccc(-c2oc3ccc(F)cc3c2-c2c(O)c(C)nn(C)c2=O)cc1 [Compound No. 9-020, 4-(5-fluoro-2-(4-methoxyphenyl)benzofuran-3-yl)-5-hydroxy-2,6-dimethylpyridazin-3(2H)-one]		5 (Herbicidal rate of 90% or more (almost completely withered))				3 (Herbicidal rate of 40% or more and less than 70%)			5 (Herbicidal rate of 90% or more (almost completely withered))				3 (Herbicidal rate of 40% or more and less than 70%)					herbicidal effect on Italian ryegrass (K) (Italian ryegrass [1]; [12]): 4 (Herbicidal rate of 70% or more and less than 90%); Herbicidal effect on E (rice flat sedge), foliage application (rice flat sedge; [11]): 5 (Herbicidal rate of 90% or more (almost completely withered)); O: lambsquarters, herbicidal effect grade (lambsquarters [2]): 0 (Herbicidal rate of 5% or less (almost no effect)); herbicidal effect on lambsquarters (O) (lambsquarters [3]; [12]): 5 (Herbicidal rate of 90% or more (almost completely withered)); herbicidal effect on velvetleaf (M) (velvetleaf [4]; [12]): 5 (Herbicidal rate of 90% or more (almost completely withered)); K: Italian ryegrass, herbicidal effect grade (Italian ryegrass [6]): 5 (Herbicidal rate of 90% or more (almost completely withered)); M: velvetleaf, herbicidal effect grade (velvetleaf [7]): 2 (Herbicidal rate of 20% or more and less than 40%); herbicidal effect on barnyard grass (H) (barnyard grass; [12]): 5 (Herbicidal rate of 90% or more (almost completely withered)); herbicidal effect on windgrass (L) (windgrass; [12]): 5 (Herbicidal rate of 90% or more (almost completely withered)); I: wild oat, herbicidal effect grade (wild oat [9]): 2 (Herbicidal rate of 20% or more and less than 40%); R: persian speedwell, herbicidal effect grade (persian speedwell): 5 (Herbicidal rate of 90% or more (almost completely withered)); herbicidal effect on wild oat (I) (wild oat [10]; [12]): 3 (Herbicidal rate of 40% or more and less than 70%)

From patent publication US20230085307A1, “PYRIDAZINONE COMPOUND AND HERBICIDE” (NISSAN CHEMICAL CORPORATION, priority 2019, published 2023)
